Earlier results on one compound are cited in US20230149445A1, “OXIDATIVE STRESS INHIBITOR AND ANTIOXIDANT AGENT” (BOSQUET Silicon Corp., priority 2020, published 2023).

For this data set the following is noted: water at 25° C.

Regarding `[HH]` [hydrogen (H2), hydrogen], the “saturated solubility in water” value is 1.6 ppm.
